We go through 41 molecules from patent US9447039B2, “Indole carboxamide derivatives and uses thereof” (priority 2012, dated 2016).

≈ marks a conversion by molar mass, not a printed value. Where only a bound is given, the exact number is not on record here.

The subject of this assay is Mycobacterium tuberculosis H37Rv (ATCC #27294). In words: Minimum Inhibitory Concentration (MIC50) determination. The format is cell-based. To be noted: 120 h. Here is the method:
Mycobacterium tuberculosis H37Rv (ATCC #27294) (Mtb) strain was maintained in Middlebrook 7H9 broth medium supplemented with 0.05% Tween 80 and 10% ADS supplement. ADS supplement contains 5% bovine serum albumin fraction V. 2% D-dextrose and 0.8% of sodium chloride. Middlebrook 7H11 agar medium supplemented with 10% OADC (oleic acid, albumin, dextrose and catalase) was used as solid media for growing Mtb. Stock solutions of the compounds were prepared using 90% DMSO.
Minimum Inhibitory Concentration (MIC50) Determination
In Table 5 below, MIC50 is defined as the lowest concentration of the compound that inhibited 50% growth of the wild type strain compared to untreated controls. Test compounds were two or three fold serially diluted in duplicates and spotted by mosquito HTS to 384-well clear plates, resulting in 10 dilutions of each compound. A volume of 50 μl of Mtb culture (final OD600 of 0.02) was added to each well, and the assay plates were incubated at 37° C. for 5 days. Growth of bacteria was measured by reading absorbance at 600 nm using a Spectramax M2 spectrophotometer. MIC50 values were determined by using Activity Base software.

Take `Cc1cc(C)c2cc(C(=O)Nc3ccc(Cl)cc3)[nH]c2c1` [Example 3B, N-(4-Chlorophenyl)-4,6-dimethyl-1H-indole-2-carboxamide]: the MIC50 (as a rule, the lowest concentration that inhibits either 50% of growth or 50% of the strains tested, depending on the study) is 2.95 µM (≈ 0.881 µg/mL).
As for `COc1cc2cc(C(=O)N[C@@H]3CCCC[C@@H]3C)[nH]c2cc1OC` [Example 4AQ, 5,6-Dimethoxy-N-((1R,2S)-2-methylcyclohexyl)-1H-indole-2-carboxamide], the MIC50 was found to be 19.5 µM (≈ 6.17 µg/mL).
In the case of `Cc1cc(C)c2cc(C(=O)N[C@H]3CC[C@H](C(C)C)CC3)[nH]c2c1` [Example 4D, N-(trans-4-Isopropylcyclohexyl)-4,6-dimethyl-1H-indole-2-carboxamide] it was 0.03 µM (≈ 0.00937 µg/mL).
Consider `CC1CCC(NC(=O)c2cc3c(Cl)cc(F)cc3[nH]2)CC1` (centres unmarked) [Example 4AT, 4-Chloro-6-fluoro-N-(4-methylcyclohexyl)-1H-indole-2-carboxamide], for which the MIC50 is 0.165 µM (≈ 0.0509 µg/mL).
In the case of `Cc1cc(C)c2cc(C(=O)NC3CCCCC3C#N)[nH]c2c1` (centres unmarked) [Example 4Q, N-(2-Cyanocyclohexyl)-4,6-dimethyl-1H-indole-2-carboxamide] it was 2.06 µM (≈ 0.608 µg/mL); in that of `Cc1cc(C)c2cc(C(=O)N[C@H]3CCC[C@H](C)[C@H]3C)[nH]c2c1` [Example 4E, N-((1S,2R,3S)-2,3-Dimethylcyclohexyl)-4,6-dimethyl-1H-indole-2-carboxamide], 0.08 µM (≈ 0.0239 µg/mL); in that of `Cc1cc(C)c2cc(C(=O)N[C@@H]3CCC[C@@H]3C)[nH]c2c1` [Example 4K, 4,6-Dimethyl-N-((1R,2S)-2-methylcyclopentyl)-1H-indole-2-carboxamide], 0.69 µM (≈ 0.187 µg/mL).
`Cc1cc(C)c2cc(C(=O)NC3CCCCC3C)[nH]c2c1` (centres unmarked) [Example 3H, 4,6-Dimethyl-N-(2-methylcyclohexyl)-1H-indole-2-carboxamide] gave an MIC50 of 0.32 µM (≈ 0.091 µg/mL).
In the case of `Cc1cc(C)c2cc(C(=O)NCC3CCCCC3)[nH]c2c1` [Example 3N, N-(Cyclohexylmethyl)-4,6-dimethyl-1H-indole-2-carboxamide] it was 0.87 µM (≈ 0.247 µg/mL); in that of `Cc1cc(C)c2cc(C(=O)NC(C)CCc3ccccc3)[nH]c2c1` (centres unmarked) [Example 3E, 4,6-Dimethyl-N-(4-phenylbutan-2-yl)-1H-indole-2-carboxamide], 5.74 µM (≈ 1.84 µg/mL).
In the case of `Cc1cc(N2CCOCC2)cc2[nH]c(C(=O)N[C@@H]3CCCC[C@@H]3C)cc12` [Example 6B, 4-Methyl-N-((1R,2S)-2-methylcyclohexyl)-6-morpholino-1H-indole-2-carboxamide] it was 14.2 µM (≈ 5.07 µg/mL); in that of `CCC(C)CNC(=O)c1cc2c(C)cc(C)cc2[nH]1` (centres unmarked) [Example 3I, 4,6-Dimethyl-N-(2-methylbutyl)-1H-indole-2-carboxamide], 2.48 µM (≈ 0.641 µg/mL).
Regarding `Cc1cc(C)c2cc(C(=O)NC3CCCCC3C(F)(F)F)[nH]c2c1` (centres unmarked) [Example 4M, 4,6-Dimethyl-N-(2-(trifluoromethyl)cyclohexyl)-1H-indole-2-carboxamide], the MIC50 worked out at 0.585 µM (≈ 0.198 µg/mL). This MIC50 is about 4.2-fold lower than that of the molecule before.
In the case of `COc1cccc2[nH]c(C(=O)N[C@@H]3CCCC[C@@H]3C)cc12` [Example 4AL, 4-Methoxy-N-((1R,2S)-2-methylcyclohexyl)-1H-indole-2-carboxamide] it was 1.59 µM (≈ 0.455 µg/mL); in that of `CC1CCC(NC(=O)c2cc3ccc(Cl)cc3[nH]2)CC1` (centres unmarked) [Example 4V, 6-Chloro-N-(4-methylcyclohexyl)-1H-indole-2-carboxamide], 0.2 µM (≈ 0.0582 µg/mL); in that of `CC1CCC(NC(=O)c2cc3ccc(Cl)c(Cl)c3[nH]2)CC1` (centres unmarked) [Example 4W, 6,7-Dichloro-N-(4-methylcyclohexyl)-1H-indole-2-carboxamide], 0.72 µM (≈ 0.234 µg/mL).
Take `O=C(NC1CCC(CF)CC1)c1cc2c(Cl)cc(Cl)cc2[nH]1` (centres unmarked) [Example 7A, 4,6-Dichloro-N-(4-(fluoromethyl)cyclohexyl)-1H-indole-2-carboxamide]: the MIC50 came out at 0.14 µM (≈ 0.0481 µg/mL). Against the preceding molecule, the MIC50 is about 5.1-fold lower.
Molecule `C[C@H]1CC[C@@H](NC(=O)c2cc3c(Cl)cc(Cl)cc3[nH]2)CC1` [Example 4R, 4,6-Dichloro-N-(cis-4-methylcyclohexyl)-1H-indole-2-carboxamide] registered an MIC50 of 0.14 µM (≈ 0.0455 µg/mL).
For the molecule `Cc1cc(C#N)c2cc(C(=O)N[C@@H]3CCCC[C@@H]3C)[nH]c2c1` [Example 4AK, 4-Cyano-6-methyl-N-((1R,2S)-2-methylcyclohexyl)-1H-indole-2-carboxamide], the MIC50 was 0.02 µM (≈ 0.00591 µg/mL). This MIC50 is about 7-fold lower than that of the molecule before.
Turning to `COCC1CCC(NC(=O)c2cc3c(Cl)cc(Cl)cc3[nH]2)CC1` (centres unmarked) [Example 8A, 4,6-Dichloro-N-(4-(methoxymethyl)cyclohexyl)-1H-indole-2-carboxamide], the MIC50 was determined as 1.51 µM (≈ 0.536 µg/mL).
Molecule `CC1CCC(NC(=O)c2cc3cccc(Cl)c3[nH]2)CC1` (centres unmarked) [Example 4X, 7-Chloro-N-(4-methylcyclohexyl)-1H-indole-2-carboxamide] yielded an MIC50 of 0.9 µM (≈ 0.262 µg/mL).
In the case of `C[C@H]1CC[C@H](NC(=O)c2cc3c(Cl)cc(Cl)cc3[nH]2)CC1` [Example 4S, 4,6-Dichloro-N-(trans-4-methylcyclohexyl)-1H-indole-2-carboxamide] it was 0.14 µM (≈ 0.0455 µg/mL).
In the case of `Cc1cc(C)c2cc(C(=O)NCC(C)C)[nH]c2c1` [Example 3J, N-Isobutyl-4,6-dimethyl-1H-indole-2-carboxamide] it was 11.8 µM (≈ 2.9 µg/mL); in that of `C[C@H]1CC[C@H](NC(=O)c2cc3c(F)cc(F)cc3[nH]2)CC1` [Example 4AU, 4,6-Difluoro-N-(trans-4-methylcyclohexyl)-1H-indole-2-carboxamide], 0.56 µM (≈ 0.164 µg/mL).
With `Cc1cc(C)c2cc(C(=O)NC3CCCCCC3)[nH]c2c1` [Example 3G, N-Cycloheptyl-4,6-dimethyl-1H-indole-2-carboxamide], the MIC50 was determined as 0.098 µM (≈ 0.0279 µg/mL).
In the case of `CC1CCC(NC(=O)c2cc3c(F)cccc3[nH]2)CC1` (centres unmarked) [Example 4BG, 4-Fluoro-N-(4-methylcyclohexyl)-1H-indole-2-carboxamide] it was 2.13 µM (≈ 0.584 µg/mL); in that of `CC1CCC(NC(=O)c2cc3c(Cl)ccc(Cl)c3[nH]2)CC1` (centres unmarked) [Example 4U, 4,7-Dichloro-N-(4-methylcyclohexyl)-1H-indole-2-carboxamide], 8.42 µM (≈ 2.74 µg/mL).
In the case of `C[C@H]1CCCC[C@H]1NC(=O)c1cc2c(C#N)cccc2[nH]1` [Example 4AD, 4-Cyano-N-((1R,2S)-2-methylcyclohexyl)-1H-indole-2-carboxamide] it was 0.76 µM (≈ 0.214 µg/mL); in that of `C[C@H]1CC[C@@H](NC(=O)c2cc3c(C#N)cc(C#N)cc3[nH]2)CC1` [Example 4AW, 4,6-Dicyano-N-(cis-4-methyl-cyclohexyl)-1H-indole-2-carboxamide], greater than 20 µM; in that of `Cc1cc(C)c2cc(C(=O)N[C@@H]3CCC[C@@H](C)[C@@H]3C)[nH]c2c1` [Example 4C, N-((1R,2S,3R)-2,3-Dimethylcyclohexyl)-4,6-dimethyl-1H-indole-2-carboxamide], 0.03 µM (≈ 0.00895 µg/mL).
In the case of `Cc1cc(C)c2cc(C(=O)N[C@@H]3CCCC[C@@H]3C)[nH]c2c1` [Example 4A, 4,6-Dimethyl-N-((1R,2S)-2-methylcyclohexyl)-1H-indole-2-carboxamide] it was 0.07 µM (≈ 0.0199 µg/mL).
In the case of `O=C(NC1CCC(CO)CC1)c1cc2c(Cl)cc(Cl)cc2[nH]1` (centres unmarked) [Example 4AX, 4,6-Dichloro-N-(4-(hydroxymethyl)-cyclohexyl)-1H-indole-2-carboxamide], the MIC50 is 13.5 µM (≈ 4.6 µg/mL).
In turn, `CC1(C)CCC(NC(=O)c2cc3c(F)cc(F)cc3[nH]2)CC1` [Example 2A, N-(4,4-Dimethylcyclohexyl)-4,6-difluoro-1H-indole-2-carboxamide] gave an MIC50 of 0.023 µM (≈ 0.00705 µg/mL).
In the case of `Cc1cc(C)c2cc(C(=O)Nc3ccc(F)cc3)[nH]c2c1` [Example 3C, N-(4-Fluorophenyl)-4,6-dimethyl-1H-indole-2-carboxamide] it was 2.45 µM (≈ 0.692 µg/mL).
In the case of `O=C(NC1CCC(C(F)(F)F)CC1)c1cc2c(Cl)cc(Cl)cc2[nH]1` (centres unmarked) [Example 5A, 4,6-Dichloro-N-(4-(trifluoromethyl)-cyclohexyl)-1H-indole-2-carboxamide] it was 0.305 µM (≈ 0.116 µg/mL).
In the case of `Cc1cccc2[nH]c(C(=O)N[C@@H]3CCCC[C@@H]3C)cc12` [Example 4AA, 4-Methyl-N-((1R,2S)-2-methylcyclohexyl)-1H-indole-2-carboxamide] it was 0.25 µM (≈ 0.0676 µg/mL).
As for `Cc1cc(C#N)cc2[nH]c(C(=O)N[C@@H]3CCCC[C@@H]3C)cc12` [Example 4AJ, 6-Cyano-4-methyl-N-((1R,2S)-2-methylcyclohexyl)-1H-indole-2-carboxamide], the MIC50 is 0.15 µM (≈ 0.0443 µg/mL).
In the case of `Cc1cc(C)c2cc(C(=O)NC3CCCCC3O)[nH]c2c1` (centres unmarked) [Example 4L, N-(2-Hydroxycyclohexyl)-4,6-dimethyl-1H-indole-2-carboxamide] it was 2.92 µM (≈ 0.837 µg/mL).
The molecule `O=C(NC1CCCCC1)c1cc2c(F)cc(F)cc2[nH]1` [Example 4BB, N-Cyclohexyl-4,6-difluoro-1H-indole-2-carboxamide] returned an MIC50 greater than 20 µM.
In turn, `C[C@H]1CC[C@H](NC(=O)c2cc3c(C#N)cc(C#N)cc3[nH]2)CC1` [Example 4AV, 4,6-Dicyano-N-(trans-4-methylcyclohexyl)-1H-indole-2-carboxamide] returned an MIC50 of 0.225 µM (≈ 0.0689 µg/mL).
`O=C(NC1CCC(C(F)(F)F)CC1)c1cc2c(F)cc(F)cc2[nH]1` (centres unmarked) [Example 5B, 4,6-Difluoro-N-(4-(trifluoromethyl)-cyclohexyl)-1H-indole-2-carboxamide] had an MIC50 of 1.19 µM (≈ 0.41 µg/mL).
